US9314541B2, “In vivo imaging method for cancer” (GE Healthcare Limited, priority 2010, dated 2016)

Experiments:
[1] = In vivo biodistribution method; set-up: species or system Wistar rats; settings: for OB:Str 30 min: ratio olfactory bulb to striatum, 30 min after injection
Procedure: Imaging agents of the invention were tested in an in vivo biodistribution model.
Adult male Wistar rats (200-300 g) were injected with 1-3 MBq of test compound via the lateral tail vein. At 2, 10, 30 or 60 min (n=3) after injection, rats were euthanised and tissues or fluids were sampled for radioactive measurement on a gamma counter.

[2] = compared with 11C-PK11195; cited from earlier work
[3] = cited from earlier work
[4] = target: PBR (Homo sapiens, UniProt P30536); settings: in vivo; cited from earlier work
[5] = target: T1, Wistar rat heart PBR (Rattus norvegicus, UniProt P16257); assay: In vitro potency assay: competition against 0.3 nM [3H]PK-11195 for binding to PBR; settings: non-radioactive analogues tested; vs 0.3 nM [3H]PK-11195; 50 mM Tris-HCl pH 7.4, 10 mM MgCl2, 15 minutes at 25° C.
T1 construct: from tissue; host or cells: Wistar rat heart
Procedure: Non-radioactive analogues of in vivo imaging agents of the invention were tested.
The reaction was carried out in 50 mM Tris-HCl, pH 7.4 10 mM MgCl2 for 15 minutes at 25° C.

Chain of PBR (P30536 whole entry, species assumed): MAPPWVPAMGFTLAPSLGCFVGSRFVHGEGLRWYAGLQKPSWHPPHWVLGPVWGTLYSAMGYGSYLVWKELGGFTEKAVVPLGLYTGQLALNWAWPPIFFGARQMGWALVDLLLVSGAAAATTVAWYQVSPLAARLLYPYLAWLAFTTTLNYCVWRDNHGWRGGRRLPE

O=C(C1CCCc2c1c1ccccc1n2CC[18F])N1CCCCCC1 (stereo not shown) [compound 9]
Brain 2 min (% ID/g) ([1]; brain, 2 min after injection via lateral tail vein, 1-3 MBq, adult male Wistar rats): 0.56 % ID/g
OB 30 min (% ID/g) ([1]; olfactory bulb, 30 min after injection via lateral tail vein, adult male Wistar rats): 0.41 % ID/g
OB:Str 30 min [1]: 3.72

CCN(CC)C(=O)Cc1c(-c2ccc(OCC[18F])cc2)nn2c(C)cc(C)nc12 [^18F-DPA-714]
bioavailability [2]: increased

CC[C@H](C)N([11CH3])C(=O)c1cc2ccccc2c(-c2ccccc2Cl)n1 [[^11C]PK11195]
plasma protein binding [3]: high and variable
brain uptake [4]: relatively low and variable
levels of non-specific binding [4]: relatively high

CN(Cc1ccccc1)C(=O)C1CCCc2c1c1ccccc1n2CC[18F] (stereo not shown) [compound 7]
OB:Str 30 min [1]: 3.40

CCN(CC)C(=O)C1CC(C)Cc2c1c1ccccc1n2CC[18F] (stereo not shown) [compound 11]
Ki [5]: 2.12 nM
OB:Str 30 min [1]: 3.50
